This is an account of results in PMC6131501, “Urate transporter inhibitor lesinurad is a selective peroxisome proliferator-activated receptor gamma modulator (sPPARγM) in vitro” (Scientific Reports, 2018).

Like-named read-outs stand apart in the source and are kept apart here.

For series [1] the following is noted: cited from earlier work; for peak plasma levels: oral dose of 200 mg.
For series [2], the target named is pregnane X receptor (PXR) (Homo sapiens, UniProt O75469). Nature of the series: Gal4 hybrid reporter gene assay PXR. From the text:
These in vitro test systems are based on a constitutively expressed hybrid receptor composed of the ligand binding domain of the respective human nuclear receptor and the DNA binding domain of the yeast receptor Gal4. A Gal4-inducible firefly luciferase serves as reporter gene and a constitutively expressed renilla luciferase is used for normalization of transfection efficacy and internal toxicity control[18],[19]. […] The Gal4-fusion receptor plasmids pFA-CMV-hPPARα-LBD[50], pFA-CMV-hPPARγ-LBD[50], pFA-CMV-hPPARδ-LBD[50], pFA-CMV-hLXRα-LBD[51], pFA-CMV-hLXRβ-LBD[51], pFA-CMV-hRXRα-LBD[52], pFA-CMV-hRXRβ-LBD[52], pFA-CMV-hRXRγ-LBD[52], pFA-CMV-hRARα-LBD[52], pFA-CMV-hRARβ-LBD[52], pFA-CMV-hRARγ-LBD[52], pFA-CMV-hFXR-LBD[53], pFA-CMV-hVDR-LBD[52], pFA-CMV-hCAR-LBD[52] and pFA-CMV-hPXR-LBD[52] coding for the hinge region and ligand binding domain (LBD) of the canonical isoform of the respective nuclear receptor have been reported previously. pFR-Luc (Stratagene) was used as reporter plasmid and pRL-SV40 (Promega) for normalization of transfection efficiency and cell growth.
HEK293T cells were grown in DMEM high glucose, supplemented with 10% FCS, sodium pyruvate (1 mM), penicillin (100 U/mL) and streptomycin (100 μg/mL) at 37 °C and 5% CO2. […] Luminescence was measured with an Infinite M200 luminometer (Tecan Deutschland GmbH). […]

The subject of series [3] is PPARγ-regulated genes in HepG2 cells. Nature of the series: PPARγ target gene quantification in HepG2 cells (qPCR). The format is cell-based, human. The settings on record: HepG2, 30 μM, 8 h; mean ± SEM, n = 4. The procedure: HepG2 cells were incubated with 1 (30 μM) or 0.1% DMSO as untreated control for 8 h, harvested, washed with cold phosphate-buffered saline (PBS) and then directly used for RNA extraction. 2 μg total RNA were extracted from HepG2 cells by the Total RNA Mini Kit (R6834-02, Omega Bio-Tek, Inc., Norcross, GA, USA). RNA was reverse-transcribed into cDNA using the High-Capacity cDNA Reverse Transcription Kit (4368814, Thermo Fischer Scientific, Inc.) according to the manufacturer’s protocol. PPARγ target gene expression was evaluated by quantitative real time PCR analysis with a StepOnePlus™ System (Life Technologies, Carlsbad, CA, USA) using Power SYBR Green (Life Technologies; 12.5 μL per well). Each sample was set up in duplicates and repeated in four independent experiments. The expression was quantified by the comparative ∆∆Ct method and glycerinaldehyde 3-phosphate dehydrogenase (GAPDH) served as reference gene. The following PCR primers were used: Adiponectin: 5′-TGGCTATGCTCACAGTCTCACATC-3′ (fwd) and 5′-CTCTGTGCCTCTGGTTCCACAA-3′ (rev); ANGPTL4: 5′-ATTCTTTCCAGCGGCTTCTG-3′ (fwd) and 5′-GAG GAC TGG AGA CGC GGA G-3′ (rev); CD36: 5′-GGC TGT GAC CGG AAC TGT G-3′ (fwd) and 5′-AGGTCTCCAACTGGCATTAGAA-3′ (rev); GAPDH: 5′-ATATGATTCCACCCATGGCA-3′ (fwd) and 5′-GATGATGACCCTTTTGGCTC-3′ (rev).
Results (expressed as mean ± SEM % relative mRNA expression to vehicle (0.1% DMSO); n = 4): Adiponectin: 1 (30 μM): 163 ± 41%; ANGPTL4: 1 (30 μM): 298 ± 49%; CD36: 1 (30 μM): 105 ± 16%.

The target in another series is PPARγ LBD / SRC-1 (Homo sapiens, UniProt P37231). Nature of the series: PPARγ coactivator recruitment assay (time-resolved FRET), SRC-1. The series is classed as biochemical. From the text: We analyzed the ability of lesinurad to induce recruitment of the coactivators steroid receptor coactivator 1 (SRC-1, also known as nuclear receptor coactivator 1 (NCOA1)) and cyclic AMP responsive element binding (CREB) protein (CBP) to the PPARγ ligand binding domain in a time-resolved FRET assay with labeled PPARγ-LBD and coactivator proteins (Fig. 5D).
Sequence of PPARγ LBD / SRC-1 (P37231 238-503 limits assumed): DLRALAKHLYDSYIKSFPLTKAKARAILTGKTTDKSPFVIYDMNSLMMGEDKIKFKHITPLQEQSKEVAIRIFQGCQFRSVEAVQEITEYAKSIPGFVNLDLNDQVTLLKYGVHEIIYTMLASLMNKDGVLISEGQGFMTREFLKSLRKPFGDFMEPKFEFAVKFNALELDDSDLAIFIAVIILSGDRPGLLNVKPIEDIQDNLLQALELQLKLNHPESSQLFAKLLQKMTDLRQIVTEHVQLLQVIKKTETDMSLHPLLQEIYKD
Sequence of PPARγ LBD / SRC-1 (Q15788 676-700 partner limits assumed): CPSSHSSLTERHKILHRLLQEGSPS
Recruitment of coactivator-derived peptides to the PPARγ LBD was studied by homogeneous time-resolved fluorescence resonance energy transfer (HT-FRET or HTRF). Terbium cryptate as streptavidin conjugate (cisbio assays, France) was used as FRET donor. Peptides derived from coactivators SRC-1 [biotin-[…]] or CBP [biotin-[…]] encompassing the coactivator consensus motif LxxLL and N-terminal biotin for stable coupling to streptavidin were purchased (Eurogentec GmbH, Germany). […] FI520 nm was divided by FI620 nm and multiplied with 10,000 giving a dimensionless HTRF signal. Coactivator recruitment by the PPARγ LBD brings FRET donor and acceptor into close proximity resulting in a gain in FRET signal as signal for binding.

Sequence of pregnane X receptor (PXR) (O75469 146-433 limits assumed): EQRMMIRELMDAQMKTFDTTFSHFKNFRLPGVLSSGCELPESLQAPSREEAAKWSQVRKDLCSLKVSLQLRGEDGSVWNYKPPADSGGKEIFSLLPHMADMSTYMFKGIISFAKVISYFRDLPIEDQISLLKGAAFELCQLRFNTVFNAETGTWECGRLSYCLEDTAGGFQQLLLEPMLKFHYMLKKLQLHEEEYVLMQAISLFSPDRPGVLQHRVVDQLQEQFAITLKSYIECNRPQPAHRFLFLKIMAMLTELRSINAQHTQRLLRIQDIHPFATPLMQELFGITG

Consider `O=C(O)CSc1nnc(Br)n1-c1ccc(C2CC2)c2ccccc12` [lesinurad], for which the free concentration in series [1] (free plasma concentration after protein binding) is 300 to 600 nM. In addition, in series [1] (ref 40), the peak plasma levels is on record as 15 µM. In series [1] (ref 41), the peak plasma levels is 17 µM. Further, in series [1] (single 600 mg oral dose, healthy men), the “mean peak plasma levels” value was 22 µg/mL. Also, a half-maximal response in series [2] (EC50) required 19 ± 1 µM. Further, the PXR transactivation efficacy in series [2] (vs. 1 µM SR12813) is 145 ± 9%. In addition, in series [3], the “ANGPTL4 relative mRNA expression to vehicle” value is 298 ± 49%, the “Adiponectin relative mRNA expression to vehicle” value is on record as 163 ± 41% and the “CD36 relative mRNA expression to vehicle” value worked out at 105 ± 16%. Also, the EC50 at PPARγ LBD / SRC-1 (HTRF, PPARγ LBD, 2 h at RT) was 12 ± 2 µM. For the same compound, the SRC-1 recruitment efficacy at PPARγ LBD / SRC-1 (compared to 1 μM rosiglitazone) is listed as 91 ± 5%.
